The record followed here is ChEMBL document CHEMBL1165924 (Bioorg Med Chem, 2010).

In test [1] the target is T1, Neuraminidase (Influenza A virus, UniProt B4URF0). Nature of the test: Inhibition of Influenza A virus A/WSN/1933(H1N1) neuraminidase.
A short description of test [2]: Antiviral activity against Influenza A virus (A/WSN/1933(H1N1)) infected in MDCK cells assessed as inhibition of virus-induced cytopathicity. The test is classed as functional, organism-based.
Another test deals with Influenza A virus. Nature of the test: Antiviral activity against Influenza A virus (A/Singapore/1/1957 (H2N2)) infected in MDCK cells assessed as inhibition of virus-induced plaque formation. The test is classed as functional, organism-based.
The target of test [3] is T1, Neuraminidase.
Test [4] concerns the target T1, Neuraminidase. Kind of test: Inhibition of Influenza A virus A/Vienna/83/58(H2N2) neuraminidase.

Each structure is given as a SMILES string.

T1 sequence (B4URF0 whole entry): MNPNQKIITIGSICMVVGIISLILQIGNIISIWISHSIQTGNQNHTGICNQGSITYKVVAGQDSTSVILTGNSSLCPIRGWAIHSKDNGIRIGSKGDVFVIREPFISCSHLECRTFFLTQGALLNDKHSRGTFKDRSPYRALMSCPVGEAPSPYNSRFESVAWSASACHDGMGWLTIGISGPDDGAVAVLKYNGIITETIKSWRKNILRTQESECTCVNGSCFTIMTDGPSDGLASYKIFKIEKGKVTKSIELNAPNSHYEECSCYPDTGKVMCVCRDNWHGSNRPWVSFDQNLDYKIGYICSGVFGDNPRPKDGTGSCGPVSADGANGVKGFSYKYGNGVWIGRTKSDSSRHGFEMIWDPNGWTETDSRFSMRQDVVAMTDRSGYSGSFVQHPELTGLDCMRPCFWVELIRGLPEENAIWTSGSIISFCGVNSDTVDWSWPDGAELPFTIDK

The compound `CC(=O)N[C@H]1[C@H]([C@H](O)[C@H](O)CO)OC(C(=O)O)=C[C@@H]1NCCCCN` showed an IC50 against Neuraminidase [1] greater than 200 µM.
Take `CC(=O)N[C@H]1[C@H]([C@H](O)[C@H](O)CO)OC(C(=O)O)=C[C@@H]1NC(=N)NCCCCN`: the 50% inhibitory concentration (IC50) against Neuraminidase [1] was greater than 200 µM.
`CC(=O)N[C@H]1[C@H]([C@H](O)[C@H](O)CO)OC(C(=O)O)=C[C@@H]1NCCCN`: the IC50 at Neuraminidase [1] is greater than 200 µM.
Turning to `CC(=O)N[C@H]1[C@H]([C@H](O)[C@H](O)CO)OC(C(=O)O)=C[C@@H]1N(CCCN)C(=N)N`, the half-maximal inhibitory concentration (IC50) at Neuraminidase [1] is greater than 200 µM.
Take `CC(=O)N[C@H]1[C@H]([C@H](O)[C@H](O)CO)OC(C(=O)O)=C[C@@H]1NCCCC(=O)O`: the midpoint of inhibition against Neuraminidase [1], the IC50, lay at 70 µM.
Same read-out and setting: then `CC(=O)N[C@H]1[C@H]([C@H](O)[C@H](O)CO)OC(C(=O)O)=C[C@@H]1NC1=NCCN1`, with greater than 200 µM; and `CC(=O)N[C@H]1[C@H]([C@H](O)[C@H](O)CO)OC(C(=O)O)=C[C@@H]1N(CCCCN)C(=N)N`, with greater than 200 µM.
Compound `CC(=O)N[C@H]1[C@H]([C@H](O)[C@H](O)CO)OC(C(=O)O)=C[C@@H]1N(CCCC(=O)O)C(=N)N` came in with an IC50 against Neuraminidase [1] of 7.12 µM. In addition, in test [2], the EC50 was found to be 52 µM.
The compound `CC(=O)N[C@H]1[C@H]([C@H](O)[C@H](O)CO)OC(C(=O)O)=C[C@@H]1N=C(N)NCCCN` showed an IC50 against Neuraminidase [1] greater than 200 µM.
On to `CC(=O)N[C@H]1[C@H]([C@H](O)[C@H](O)CO)OC(C(=O)O)=C[C@@H]1N(CCCC(=O)N1CCN(C)CC1)C(=N)N`, for which inhibition on Neuraminidase [1] was half-maximal at 6.5 µM (IC50). In test [2], the EC50 stood at 10.7 µM.
`CC(=O)N[C@H]1[C@H]([C@H](O)[C@H](O)CO)OC(C(=O)O)=C[C@@H]1N(CCCC(=O)N1CCOCC1)C(=N)N`: inhibition on Neuraminidase [1] was half-maximal at 33.3 µM (IC50). The 50% effective concentration (EC50) in test [2] amounted to 37.6 µM.
For `CC(=O)N[C@H]1[C@H]([C@H](O)[C@H](O)CO)OC(C(=O)O)=C[C@@H]1N(CCCC(=O)N1CCCCC1)C(=N)N` the same measures were 23.1 µM and 45 µM.
Regarding `CC(=O)N[C@H]1[C@H]([C@H](O)[C@H](O)CO)OC(C(=O)O)=C[C@@H]1N(CCCC(=O)N1CCNCC1)C(=N)N`, at Neuraminidase [1], the IC50 was found to be 2.15 µM. Moreover, the EC50 in test [2] came to 0.77 µM.
In turn, `CC(=O)N[C@H]1[C@H]([C@H](O)[C@H](O)CO)OC(C(=O)O)=C[C@@H]1NCCCCC(=O)O` gave a half-maximal inhibitory concentration (IC50) on Neuraminidase [1] of 80 µM.
Turning to `CC(=O)N[C@H]1[C@H]([C@H](O)[C@H](O)CO)OC(C(=O)O)=C[C@@H]1N`, the half-maximal effective concentration (EC50) with Influenza A virus came out at 1.5 µM. The Ki at Neuraminidase [3] is 0.04 µM.
On to `CC(=O)N[C@H]1[C@H]([C@H](O)[C@H](O)CO)OC(C(=O)O)=C[C@@H]1O` [NEU5AC2EN], for which, on Neuraminidase [4], the half-inhibitory concentration (IC50) amounted to 190 µM.
For the compound `CC(=O)N[C@H]1[C@H]([C@H](O)[C@H](O)CO)OC(C(=O)O)=C[C@@H]1NC(=N)N` [ZANAMIVIR], the half-maximal effective concentration (EC50) in test [2] turned out to be 0.013 µM.

The IC50 is the concentration needed to halve the response being measured. A lower IC50 goes with greater potency in that assay. A word on the EC50: it is the concentration needed to bring the measured effect to its halfway point. As usually defined, the Ki is a dissociation constant, usually derived from enzyme kinetics or from competition with a known ligand. The low end stands for higher affinity, the high end for lower affinity.
